From ChEMBL document CHEMBL4190322, “Structure-based development of novel triazoles and related thiazolotriazoles as anticancer agents and Cdc25A/B phosphatase inhibitors. Synthesis, in vitro biological evaluation, molecular docking and in silico ADME-T studies” (Eur J Med Chem, 2017)
Active and inactive are the calls of the source. No cut-off for these calls is given here.

Experiments:
Format in all cases: functional
[1] = tested on: SR; assay: Growth inhibition of human SR cells at 10 uM after 48 hrs by SRB assay relative to control; settings: read-out: GI
[2] = tested on: KM12; assay: Growth inhibition of human KM12 cells at 10 uM after 48 hrs by SRB assay relative to control
[3] = tested on: CAKI-1; assay: Growth inhibition of human Caki1 cells at 10 uM after 48 hrs by SRB assay relative to control; settings: CAKI-1, 48 h, read-out: GI
[4] = tested on: OVCAR-8; assay: Growth inhibition of human OVCAR8 cells at 10 uM after 48 hrs by SRB assay relative to control
[5] = tested on: NCI-H23; assay: Growth inhibition of human NCI-H23 cells at 10 uM after 48 hrs by SRB assay relative to control; settings: NCI-H23, 48 h, read-out: GI
[6] = tested on: OVCAR-4; assay: Growth inhibition of human OVCAR4 cells at 10 uM after 48 hrs by SRB assay relative to control
[7] = tested on: CCRF-CEM; assay: Growth inhibition of human CCRF-CEM cells at 10 uM after 48 hrs by SRB assay relative to control; settings: read-out: GI
[8] = tested on: NCI-H322M; assay: Growth inhibition of human NCI-H322M cells at 10 uM after 48 hrs by SRB assay relative to control
[9] = tested on: K562; assay: Growth inhibition of human K562 cells at 10 uM after 48 hrs by SRB assay relative to control; settings: K562, 48 h, read-out: GI
[10] = tested on: RPMI-8226; assay: Growth inhibition of human RPMI8226 cells at 10 uM after 48 hrs by SRB assay relative to control
[11] = tested on: A498; assay: Growth inhibition of human A498 cells at 10 uM after 48 hrs by SRB assay relative to control; settings: A498, 48 h, read-out: GI
[12] = tested on: SK-MEL-5; assay: Growth inhibition of human SK-MEL-5 cells at 10 uM after 48 hrs by SRB assay relative to control
[13] = tested on: Malme-3M; assay: Growth inhibition of human MALME-3M cells at 10 uM after 48 hrs by SRB assay relative to control
[14] = tested on: RXF 393; assay: Growth inhibition of human RXF393 cells at 10 uM after 48 hrs by SRB assay relative to control
[15] = tested on: SF-268; assay: Growth inhibition of human SF268 cells at 10 uM after 48 hrs by SRB assay relative to control; settings: SF-268, 48 h, read-out: GI
[16] = tested on: SNB-19; assay: Growth inhibition of human SNB19 cells at 10 uM after 48 hrs by SRB assay relative to control
[17] = tested on: LOX IMVI; assay: Growth inhibition of human LOXIMVI cells at 10 uM after 48 hrs by SRB assay relative to control; settings: read-out: GI
[18] = tested on: 786-0; assay: Growth inhibition of human 786-0 cells at 10 uM after 48 hrs by SRB assay relative to control
[19] = tested on: MCF7; assay: Growth inhibition of human MCF7 cells at 10 uM after 48 hrs by SRB assay relative to control; settings: MCF7, 48 h, read-out: GI
[20] = tested on: HL-60; assay: Growth inhibition of human HL60 cells at 10 uM after 48 hrs by SRB assay relative to control
[21] = tested on: U-251; assay: Growth inhibition of human U251 cells at 10 uM after 48 hrs by SRB assay relative to control; settings: U-251, 48 h, read-out: GI
[22] = tested on: A549; assay: Growth inhibition of human A549 cells at 10 uM after 48 hrs by SRB assay relative to control; settings: A549, 48 h, read-out: GI
[23] = tested on: NCI-H226; assay: Growth inhibition of human NCI-H226 cells at 10 uM after 48 hrs by SRB assay relative to control; settings: NCI-H226, 48 h, read-out: GI
[24] = tested on: NCI/ADR-RES; assay: Growth inhibition of human NCI/ADR-RES cells at 10 uM after 48 hrs by SRB assay relative to control
[25] = tested on: MOLT-4; assay: Growth inhibition of human MOLT4 cells at 10 uM after 48 hrs by SRB assay relative to control
[26] = tested on: SK-OV-3; assay: Growth inhibition of human SKOV3 cells at 10 uM after 48 hrs by SRB assay relative to control
[27] = tested on: SNB-75; assay: Growth inhibition of human SNB75 cells at 10 uM after 48 hrs by SRB assay relative to control; settings: SNB-75, 48 h, read-out: GI
[28] = tested on: HOP-62; assay: Growth inhibition of human HOP62 cells at 10 uM after 48 hrs by SRB assay relative to control
[29] = tested on: UO-31; assay: Growth inhibition of human UO31 cells at 10 uM after 48 hrs by SRB assay relative to control; settings: UO-31, 48 h, read-out: GI
[30] = tested on: HOP-92; assay: Growth inhibition of human HOP92 cells at 10 uM after 48 hrs by SRB assay relative to control; settings: HOP-92, 48 h, read-out: GI
[31] = tested on: HCT-116; assay: Growth inhibition of human HCT116 cells at 10 uM after 48 hrs by SRB assay relative to control
[32] = tested on: HT-29; assay: Growth inhibition of human HT-29 cells at 10 uM after 48 hrs by SRB assay relative to control
[33] = tested on: UACC-62; assay: Growth inhibition of human UACC62 cells at 10 uM after 48 hrs by SRB assay relative to control
[34] = tested on: PC-3; assay: Growth inhibition of human PC3 cells at 10 uM after 48 hrs by SRB assay relative to control; settings: PC-3, 48 h, read-out: GI
[35] = tested on: MDA-MB-468; assay: Growth inhibition of human MDA-MB-468 cells at 10 uM after 48 hrs by SRB assay relative to control
[36] = tested on: NCI-H522; assay: Growth inhibition of human NCI-H522 cells at 10 uM after 48 hrs by SRB assay relative to control; settings: NCI-H522, 48 h, read-out: GI
[37] = tested on: OVCAR-3; assay: Growth inhibition of human OVCAR3 cells at 10 uM after 48 hrs by SRB assay relative to control
[38] = tested on: SK-MEL-2; assay: Growth inhibition of human SK-MEL-2 cells at 10 uM after 48 hrs by SRB assay relative to control; settings: SK-MEL-2, 48 h, read-out: GI
[39] = tested on: UACC-257; assay: Growth inhibition of human UACC257 cells at 10 uM after 48 hrs by SRB assay relative to control; settings: UACC-257, 48 h, read-out: GI
[40] = tested on: Hs-578T; assay: Growth inhibition of human Hs 578T cells at 10 uM after 48 hrs by SRB assay relative to control

SMILES | inhibition of growth at 10 µM [1] [%] | inhibition of growth at 10 µM [3] [%] | inhibition of growth at 10 µM [5] [%] | inhibition of growth at 10 µM [7] [%] | inhibition of growth at 10 µM [9] [%] | inhibition of growth at 10 µM [11] [%] | growth inhibition (GI) [14] | inhibition of growth at 10 µM [15] [%] | inhibition of growth at 10 µM [17] [%] | growth inhibition (GI) [18] | inhibition of growth at 10 µM [19] [%] | growth inhibition (GI) [20] | inhibition of growth at 10 µM [21] [%] | inhibition of growth at 10 µM [22] [%] | inhibition of growth at 10 µM [23] [%] | inhibition of growth at 10 µM [27] [%] | inhibition of growth at 10 µM [29] [%] | inhibition of growth at 10 µM [30] [%] | growth inhibition (GI) [31] | growth inhibition (GI) [32] | further results
COc1ccc(Cc2nnc(SCC(=O)c3ccc(C)cc3)n2-c2ccccc2)cc1 | 7.61 | 7.83 | 7 | 5.01 | 7.62 | 26 | inactive | 3.62 | 2 | inactive | 14.6 | inactive | 4.09 | 17.5 | 2.21 | 8.11 | 30.2 | 14.3 | inactive | inactive | inhibition of growth at 10 µM ([2]; KM12, 48 h, read-out: GI): 4.22%; inhibition of growth at 10 µM ([4]; OVCAR-8, 48 h, read-out: GI): 1.78%; inhibition of growth at 10 µM ([6]; OVCAR-4, 48 h, read-out: GI): 1.87%; inhibition of growth at 10 µM ([8]; read-out: GI): 8.17%; growth inhibition (GI) [10]: inactive; inhibition of growth at 10 µM ([12]; SK-MEL-5, 48 h, read-out: GI): 3.36%; inhibition of growth at 10 µM ([13]; read-out: GI): 5.45%; inhibition of growth at 10 µM ([16]; SNB-19, 48 h, read-out: GI): 4.85%; inhibition of growth at 10 µM ([24]; read-out: GI): 16.6%; inhibition of growth at 10 µM ([25]; MOLT-4, 48 h, read-out: GI): 9.02%; inhibition of growth at 10 µM ([26]; SK-OV-3, 48 h, read-out: GI): 13.9%; inhibition of growth at 10 µM ([28]; HOP-62, 48 h, read-out: GI): 6.7%; inhibition of growth at 10 µM ([33]; UACC-62, 48 h, read-out: GI): 14%; inhibition of growth at 10 µM [34]: 20.7%; inhibition of growth at 10 µM ([35]; MDA-MB-468, 48 h, read-out: GI): 19.3%; inhibition of growth at 10 µM [36]: 19%; inhibition of growth at 10 µM ([37]; OVCAR-3, 48 h, read-out: GI): 4.05%; inhibition of growth at 10 µM [38]: 23%; inhibition of growth at 10 µM [39]: 7.67%; growth inhibition (GI) [40]: inactive
COc1ccc(Cc2nnc3sc(SC)nn23)cc1 | 7.53 | 4.37 | 5.4 | 5.04 | 3.47 | 3.37 | inactive | 2.15 | 2.73 | inactive | 8.21 | inactive | 3.17 | 4.46 | 4.76 | 8.34 | 12.7 | 13.4 | inactive | inactive | growth inhibition (GI) [2]: inactive; growth inhibition (GI) [4]: inactive; growth inhibition (GI) [6]: inactive; growth inhibition (GI) [8]: inactive; inhibition of growth at 10 µM ([10]; RPMI-8226, 48 h, read-out: GI): 1.21%; growth inhibition (GI) [12]: inactive; growth inhibition (GI) [13]: inactive; growth inhibition (GI) [16]: inactive; growth inhibition (GI) [24]: inactive; growth inhibition (GI) [25]: inactive; growth inhibition (GI) [26]: inactive; growth inhibition (GI) [28]: inactive; growth inhibition (GI) [33]: inactive; inhibition of growth at 10 µM [34]: 2.19%; growth inhibition (GI) [35]: inactive; inhibition of growth at 10 µM [36]: 12.2%; growth inhibition (GI) [37]: inactive; inhibition of growth at 10 µM [38]: 14.7%; inhibition of growth at 10 µM [39]: 9.07%; growth inhibition (GI) [40]: inactive
